Measurements published in patent US8871767B2, “2-arylimidazo[1,2-B]pyridazine, 2-phenylimidazo[1,2-A]pyridine, and 2-phenylimidazo[1,2-A]pyrazine derivatives” (Hengrui (USA) Ltd., priority 2010, dated 2014).
Like-named read-outs stand apart in the source and are kept apart here.

Assays:
[1] = system: Hedgehog pathway activation on 10T1/2/Smo#3 cells (C3H10T1/2 cells transfected with human Smoothened receptor); assay: Hedgehog pathway activation on 10T1/2/Smo#3 cells measured by ALP activity; format: cell-based; conditions: Mus musculus, C3H 10T1/2, 10T1/2/Smo#3 cells
Summary of the method: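 C3H10T1/2 cells stably expressing human Smoothened were activated with hShh-conditioned medium (10-20%) or 500 nM SAG, with test compounds present. Pathway block read as inhibited ALP activity (4-methylumbelliferyl phosphate fluorescence); viability checked by CellTiter-Blue. IC50 values reported.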

[2] = system: Hedgehog pathway activation (GLi-luciferase reporter) in Shh Light II reporter cells; assay: Hedgehog pathway activation on Shh Light II reporter cells measured by luciferase activity; format: cell-based; conditions: Mus musculus, Shh Light II
Summary of the method: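 Shh Light II reporter cells carrying a hedgehog-responsive GLi-luciferase reporter were stimulated either with 500 nM SAG, a direct Smoothened agonist, or with conditioned media containing human Sonic Hedgehog (hShh). Test compounds were evaluated for blocking this pathway activation, quantified by luciferase activity. Cell viability was monitored in parallel with the Celltiter-Blue® assay.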

[3] = measured by ALP activity, read-out: ALP (IC50, inhibition of Hedgehog pathway activation)
[4] = hShh activation, read-out: Shh (IC50, inhibition of Hedgehog pathway activation)
[5] = hShh activation, ALP activity, read-out: 10T1/2/Smo#3 ALP activity (hShh Activation)
[6] = SAG activation (500 nM SAG), read-out: Shh Light II luciferase activity (SAG activation)
[7] = hShh activation, read-out: Shh Light II luciferase activity (hShh activation)

In the case of `CC(C)OC(=O)Nc1cc(-c2cn3nc(-c4cccnc4C(F)(F)F)ccc3n2)ccc1F` [Example 683, isopropyl 2-fluoro-5-(6-(2-(trifluoromethyl)pyridin-3-yl)imidazo[1,2-b]pyridazin-2-yl)phenylcarbamate], the IC50 [1, 3] is reported as 2550 nM and the IC50 [2, 4] is reported as 559 nM.

For `CCOc1ccc2nc(-c3ccc(C(F)(F)F)c(S(=O)(=O)NC4CCCCC4)c3)cn2n1` [Example 214, N-cyclohexyl-5-(6-ethoxyimidazo[1,2-b]pyridazin-2-yl)-2-(trifluoromethyl)benzenesulfonamide], the IC50 [1, 3] was 1580 nM and the IC50 [2, 4] was over 10000 nM.

With `O=C(CC(F)(F)F)Nc1cc(-c2cn3nc(-c4cccnc4C(F)(F)F)ccc3n2)ccc1F` [Example 680, 3,3,3-trifluoro-N-(2-fluoro-5-(6-(2-(trifluoromethyl)pyridin-3-yl)imidazo[1,2-b]pyridazin-2-yl)phenyl)propanamide] the IC50 [1, 3] was 3610 nM and the IC50 [2, 4] was 518 nM.

`CC(C)(C)C(=O)Nc1cc(-c2cn3ccc(Cl)cc3n2)ccc1C(F)(F)F` [Example 82, N-(5-(7-chloroimidazo[1,2-a]pyridin-2-yl)-2-(trifluoromethyl)phenyl)pivalamide] showed an IC50 [1, 3] of over 10000 nM and an IC50 [2, 4] of 6060 nM.

`CN[C@H]1CCN(c2ccc3nc(-c4ccc(C)c(NC(=O)C(C)(C)C)c4)cn3n2)C1` [Example 392, (S)-N-(2-methyl-5-(6-(3-(methylamino)pyrrolidin-1-yl)imidazo[1,2-b]pyridazin-2-yl)phenyl)pivalamide] was tested, and the IC50 [1, 3] was 93 nM and the IC50 [2, 4] was 77 nM.

`Cc1ccc2nc(-c3ccc(C(F)(F)F)c(NC(=O)C(C)(C)C)c3)cn2n1` [Example 142, N-(5-(6-methylimidazo[1,2-b]pyridazin-2-yl)-2-(trifluoromethyl)phenyl)pivalamide] gave an IC50 [1, 3] of 365 nM and an IC50 [2, 4] of 1410 nM.

`CN(CCO)c1ccc2nc(-c3ccc(C(F)(F)F)c(NC(=O)C(C)(C)C)c3)cn2n1` [Example 298, N-(5-(6-((2-hydroxyethyl)(methyl)amino)imidazo[1,2-b]pyridazin-2-yl)-2-(trifluoromethyl)phenyl)pivalamide] gave an IC50 [1, 3] of 612 nM and an IC50 [2, 4] of 403 nM.

With `CCOc1ccc2nc(-c3ccc(C(F)(F)F)c(NC(=O)C(C)(C)C)c3)cn2n1` [Example 136, N-(5-(6-ethoxyimidazo[1,2-b]pyridazin-2-yl)-2-(trifluoromethyl)phenyl)pivalamide] the IC50 [1, 3] was 452 nM and the IC50 [2, 4] was 158 nM.

`COc1cc(CN(Cc2cc(OC)cc(OC)c2)c2cc(-c3cn4nc(OC)ccc4n3)ccc2C)cc(OC)c1` [Example 104, N,N-bis(3,5-dimethoxybenzyl)-5-(6-methoxyimidazo[1,2-b]pyridazin-2-yl)-2-methylaniline] showed an IC50 [1, 5] of 3000 to 30000 nM, an IC50 [1, 3] of over 10000 nM and an IC50 [2, 6] of 3000 to 30000 nM. For the same compound, the IC50 [2, 4] was over 10000 nM and the IC50 [2, 7] was 3000 to 30000 nM.

For `Cc1cccc(-c2ccc3nc(-c4ccc(C(F)(F)F)c(NC(=O)C(C)(C)C)c4)cn3n2)n1` [Example 149, N-(5-(6-(6-methylpyridin-2-yl)imidazo[1,2-b]pyridazin-2-yl)-2-(trifluoromethyl)phenyl)pivalamide], the IC50 [1, 5] was 300 to 3000 nM, the IC50 [1, 3] was 1750 nM and the IC50 [2, 6] was 300 to 3000 nM. The IC50 [2, 4] was 1020 nM and the IC50 [2, 7] was 300 to 3000 nM.

For `O=C(Nc1cc(-c2cn3nc(-c4cccnc4C(F)(F)F)ccc3n2)ccc1Cl)C1CCCC1` [Example 671, N-(2-chloro-5-(6-(2-(trifluoromethyl)pyridin-3-yl)imidazo[1,2-b]pyridazin-2-yl)phenyl)cyclopentanecarboxamide], the IC50 [1, 3] was 315 nM and the IC50 [2, 4] was 24 nM.

`CC(C)(C)C(=O)Nc1cc(-c2cn3nc(OCCO)ccc3n2)ccc1C(F)(F)F` [Example 377, N-(5-(6-(2-hydroxyethoxy)imidazo[1,2-b]pyridazin-2-yl)-2-(trifluoromethyl)phenyl)pivalamide] was tested, and the IC50 [1, 3] was 704 nM and the IC50 [2, 4] was 657 nM.

Compound `Cc1ncccc1-c1ccc2nc(-c3ccc(C(F)(F)F)c(NC(=O)C(C)(C)C)c3)cn2n1` [Example 293, N-(5-(6-(2-methylpyridin-3-yl)imidazo[1,2-b]pyridazin-2-yl)-2-(trifluoromethyl)phenyl)pivalamide] has an IC50 [1, 3] of 221 nM and an IC50 [2, 4] of 310 nM.

In the case of `CCC(C)(C)C(=O)Nc1cc(-c2cn3nc(-c4cccnc4C(F)(F)F)ccc3n2)c(F)cc1Cl` [Example 659, N-(2-chloro-4-fluoro-5-(6-(2-(trifluoromethyl)pyridin-3-yl)imidazo[1,2-b]pyridazin-2-yl)phenyl)-2,2-dimethylbutanamide], the IC50 [1, 3] is reported as 75 nM and the IC50 [2, 4] is reported as 22 nM.

`Cc1ccc(-c2cn3nc(-c4cccnc4C)ccc3n2)cc1NC(=O)C(C)(C)C` [Example 278, N-(2-methyl-5-(6-(2-methylpyridin-3-yl)imidazo[1,2-b]pyridazin-2-yl)phenyl)pivalamide] showed an IC50 [1, 3] of 228 nM and an IC50 [2, 4] of 162 nM.

`CC(C)(C)C(=O)Nc1cc(-c2cn3nc(-c4cc(C(F)(F)F)ccc4F)ccc3n2)ccc1C(F)(F)F` [Example 207, N-(5-(6-(2-fluoro-5-(trifluoromethyl)phenyl)imidazo[1,2-b]pyridazin-2-yl)-2-(trifluoromethyl)phenyl)pivalamide] showed an IC50 [1, 5] of under 300 nM, an IC50 [1, 3] of 43 nM and an IC50 [2, 6] of under 300 nM. It also gave an IC50 [2, 4] of 43 nM and an IC50 [2, 7] of under 300 nM.

`Cc1ccc(-c2cn3nc(-c4cc(C#N)ccc4C)ccc3n2)cc1NC(=O)C(C)(C)C` [Example 450, N-(5-(6-(5-cyano-2-methylphenyl)imidazo[1,2-b]pyridazin-2-yl)-2-methylphenyl)pivalamide] showed an IC50 [1, 5] of under 300 nM, an IC50 [1, 3] of 337 nM and an IC50 [2, 6] of under 300 nM. The IC50 [2, 4] was 322 nM and the IC50 [2, 7] was under 300 nM.

With `COc1ccc2nc(-c3ccc(Cl)c(NC(=O)C(C)(C)C(F)(F)F)c3)cn2n1` [Example 119, N-(2-chloro-5-(6-methoxyimidazo[1,2-b]pyridazin-2-yl)phenyl)-3,3,3-trifluoro-2,2-dimethylpropanamide] the IC50 [1, 5] was 3000 to 30000 nM, the IC50 [1, 3] was 4540 nM and the IC50 [2, 6] was 3000 to 30000 nM. It also gave an IC50 [2, 4] of 5650 nM and an IC50 [2, 7] of 3000 to 30000 nM.

In the case of `COc1ccc2nc(-c3ccc(Cl)c(NC(=O)CC(F)(F)F)c3)cn2n1` [Example 111, N-(2-chloro-5-(6-methoxyimidazo[1,2-b]pyridazin-2-yl)phenyl)-3,3,3-trifluoropropanamide], the IC50 [1, 3] is reported as 9020 nM and the IC50 [2, 4] is reported as over 10000 nM.

Compound `CN[C@@H]1CCN(c2ccc3nc(-c4ccc(C(F)(F)F)c(NC(=O)C(C)(C)C)c4)cn3n2)C1` [Example 634, (R)—N-(5-(6-(3-(methylamino)pyrrolidin-1-yl)imidazo[1,2-b]pyridazin-2-yl)-2-(trifluoromethyl)phenyl)pivalamide] has an IC50 [1, 3] of 98 nM and an IC50 [2, 4] of 120 nM.

`CC(C)(C)C(=O)Nc1cc(-c2cn3nc(N(CCO)CCO)ccc3n2)ccc1C(F)(F)F` [Example 359, N-(5-(6-(bis(2-hydroxyethyl)amino)imidazo[1,2-b]pyridazin-2-yl)-2-(trifluoromethyl)phenyl)pivalamide] was tested, and the IC50 [1, 3] was 1900 nM and the IC50 [2, 4] was 1850 nM.

With `Cc1ccc(-c2cn3nc(-c4cc(C#N)ccc4C(F)(F)F)ccc3n2)cc1NC(=O)C(C)(C)C` [compound 596] the IC50 [1, 3] was 94 nM and the IC50 [2, 4] was 18 nM.

Work on `CC1CN(C2CCN(c3ccc4nc(-c5ccc(C(F)(F)F)c(NC(=O)C(C)(C)C)c5)cn4n3)CC2)CC(C)O1` (stereo not drawn) [Example 370, N-(5-(6-(4-(2,6-dimethylmorpholino)piperidin-1-yl)imidazo[1,2-b]pyridazin-2-yl)-2-(trifluoromethyl)phenyl)pivalamide] yielded an IC50 [1, 3] of 333 nM and an IC50 [2, 4] of 321 nM.

With `CCOC(=O)Nc1cc(-c2cn3nc(-c4cccnc4C(F)(F)F)ccc3n2)ccc1Cl` [Example 673, ethyl 2-chloro-5-(6-(2-(trifluoromethyl)pyridin-3-yl)imidazo[1,2-b]pyridazin-2-yl)phenylcarbamate] the IC50 [1, 3] was 678 nM and the IC50 [2, 4] was 169 nM.

Work on `Fc1ccc(CN2CCN(c3ccc4nc(-c5ccccc5)c(Cl)n4n3)CC2)cc1` [Example 144, 3-chloro-6-(4-(4-fluorobenzyl)piperazin-1-yl)-2-phenylimidazo[1,2-b]pyridazine] yielded an IC50 [1, 5] of 3000 to 30000 nM, an IC50 [1, 3] of 3970 nM and an IC50 [2, 6] of 3000 to 30000 nM. The IC50 [2, 4] was over 10000 nM and the IC50 [2, 7] was 3000 to 30000 nM.

With `COC(=O)CCCCCCC(=O)Nc1ccc(-c2ccc3nc(-c4ccc(C)c(NC(=O)C(C)(C)C)c4)cn3n2)cc1` [compound 556] the IC50 [1, 3] was 737 nM and the IC50 [2, 4] was 395 nM.

For `CCCOc1ccc(F)c(-c2ccc3nc(-c4ccc(C(F)(F)F)c(NC(=O)C(C)(C)C)c4)cn3n2)c1` [Example 253, N-(5-(6-(2-fluoro-5-propoxyphenyl)imidazo[1,2-b]pyridazin-2-yl)-2-(trifluoromethyl)phenyl)pivalamide], the IC50 [1, 3] was 448 nM and the IC50 [2, 4] was 899 nM.

`COc1ccc2nc(-c3ccc(C)c(NC(=O)c4ccccc4)c3)cn2n1` [Example 97, N-(5-(6-methoxyimidazo[1,2-b]pyridazin-2-yl)-2-methylphenyl)benzamide] was tested, and the IC50 [1, 3] was 1120 nM and the IC50 [2, 4] was 679 nM.

In the case of `CC(C)(C)C(=O)Nc1cc(-c2cn3nc(-c4ccc(O)cc4)ccc3n2)ccc1C(F)(F)F` [Example 243, N-(5-(6-(4-hydroxyphenyl)imidazo[1,2-b]pyridazin-2-yl)-2-(trifluoromethyl)phenyl)pivalamide], the IC50 [1, 3] is reported as 295 nM and the IC50 [2, 4] is reported as 306 nM.

`CCOc1ccc2nc(-c3ccc(C(F)(F)F)c(NC(=O)c4cccnc4)c3)cn2n1` [Example 193, N-(5-(6-ethoxyimidazo[1,2-b]pyridazin-2-yl)-2-(trifluoromethyl)phenyl)nicotinamide] gave an IC50 [1, 3] of 2340 nM and an IC50 [2, 4] of 7760 nM.
